Like-named read-outs stand apart in the source and are kept apart here.

For data set [1] the following is noted: cited from earlier work.
For data set [2] the following is noted: 340 mg/kg given orally ref Timothy et al; cited from earlier work.
Data set [3] in a line: Particle size and distribution (Delsa Nanoparticle Size Analyzer). In kind it is physicochemical. From the text:
The examination of particle size and distribution of particles from nanoparticles was done using the Delsa™ Nanoparticle Size Analyzer (Beckman Coulter, Brea, USA).

For data set [4] the following is noted: cited from earlier work. This is another data set of the same source.
Data set [5] in a line: In vivo pharmacokinetic study, curcumin plasma concentration by UPLC-MS/MS. The conditions noted are these: rats, single oral dose 100 mg/kg BW, mean ± SE (n = 5). On the set-up: species or system female Wistar rats. The protocol: The pharmacokinetic evaluation was carried out after obtaining approval from the Ethics Committee of the Faculty of Medicine Universitas Indonesia (approval number: 1188/ UN.2 F1/ETIK/2018). A pharmacokinetic study was carried out in female Wistar rats to determine the pharmacokinetic profile of curcumin particles and nanoparticles. Rats weighing 150–200 g were obtained and maintained at the Biomedical Research Center and Basic Health Technology Laboratory, Balitbangkes, Republic of Indonesia, Ministry of Health. The rats were placed in a room with constant temperature and humidity, adequate lighting, pellet food, and water ad libitum.
For each analysis, blood samples were pooled from six rats. […] Blood samples were taken from the rats tail vein using EDTA tubes. Blood samples were centrifuged at 3000 rpm for 15 minutes to obtain plasma, then stored at -80°C until analysis.
The LC-MS/MS system used was UPLC Waters and tandem mass spectrometry with a positive electrospray ionization source. Separation of analyte in the sample was carried using a liquid chromatography system with Acquity UPLC® BEH C18 column and mobile phase gradient in the form of 0.1% and acetonitrile formic acid with a ratio of 72:28 with analyte rate of 0.3 mL/min and injection volume of 3 µL. […] The calibration curve of a standard solution was made with the final level of the analytes at 1, 2.5, 5, 10, 25, and 50 ng/mL.[24]
The pharmacokinetic profiles were represented as mean and standard error (SE) from each group and were estimated through non-compartmental analysis. […] The area under the curve (AUC) from the beginning to the endpoint ( AUC^0→3 ) was calculated using the trapezoidal method. AUC^0→∞ is the amount of the AUC per time interval from 0 to the time of infinity, calculated by AUC^0→3 […]; Cpn is the plasma concentration at the last sampling time. […] The t1/2 was counted using the equation t1/2 = ln 2/Ke, and the CL was calculated by dividing the dose by AUC^0→∞ .[25]

In the case of `COc1cc(/C=C/C(=O)CC(=O)/C=C/c2ccc(O)c(OC)c2)ccc1O` [Curcumin particles, Curcumin], the bioavailability entry in data set [1] is given as “approximately 1%”. Further, in data set [2], the Tmax (in general, the time from dosing to the highest level) is 30 min. Also, in data set [3], the mean particle size worked out at 16103.4 nm. Moreover, in data set [4], the partition coefficient was 2.3–2.6. In data set [5] (female, Wistar, rat), the peak level (Cmax) was 1.51 ± 0.401 ng/mL and the Tmax was 44 min. Also, the AUC(0-t) in data set [5] (female, Wistar, rat, read-out: AUC0-3) came out at 1.5 ± 0.401 ng·h/mL. The AUC in data set [5] (female, Wistar, rat, read-out: AUC0-~) came out at 1.71 ± 0.535 ng·h/mL. In addition, in data set [5] (female, Wistar, rat, read-out: Ke (converted)), the k el is 0.000327 s⁻¹. For the same molecule, the half-life in data set [5] (female, Wistar, rat, read-out: t1/2 elimination (converted)) was 51.5 ± 12.8 min. Also, in data set [5] (residual method), the Ka amounted to 1.958 ± 0.468 h⁻¹.

The values are drawn from PMC7961214 (Advanced Pharmaceutical Bulletin, 2020).
